Assay results as given in patent publication US8680133B2, “Alkyl indole-3-carbinol-derived antitumor agents” (The Ohio State University Research Foundation, priority 2009, dated 2014).

How the values were obtained:
Type in all cases: cell-based, human
HT29 = assay: NCI60 screening, Colon Cancer, HT29
OVCAR-8 = assay: NCI60 screening, Ovarian Cancer, OVCAR-8
786-0 = assay: NCI60 screening, Renal Cancer, 786-0
CCRF-CEM = assay: NCI60 screening, Leukemia, CCRF-CEM
SK-OV-3 = assay: NCI60 screening, Ovarian Cancer, SK-OV-3
A498 = assay: NCI60 screening, Renal Cancer, A498
M14 = assay: NCI60 screening, Melanoma, M14
HCC-2998 = assay: NCI60 screening, Colon Cancer, HCC-2998
[1] = Homo sapiens, read-out: LC50 (the source's name)

Cc1ccc2c(c1)c(CO)cn2S(=O)(=O)c1ccc(Cl)c([N+](=O)[O-])c1 [OSU-A9M, [1-(4-chloro-3-nitro-benzenesulfonyl)-5-methyl-1H-indol-3-yl]-methanol]
TGI (HT29): 1.59E−6
GI50 (HT29; Homo sapiens, HT-29): 0.434 µM
CC50 (HT29; Homo sapiens, HT-29, read-out: LC50 (the source's name)): 3.98 µM
Percent Growth (HT29; Log10 Concentration −4.0): −100%
Percent Growth (HT29; Log10 Concentration −5.0): −100%
Percent Growth (HT29; Log10 Concentration −6.0): 25%
Percent Growth (HT29; Log10 Concentration −7.0): 94%
Percent Growth (HT29; Log10 Concentration −8.0): 91%
TGI (OVCAR-8): 3.95E−6
GI50 (OVCAR-8; Homo sapiens): 1.93 µM
CC50 (OVCAR-8; [1]): 8.09 µM
Percent Growth (OVCAR-8; Log10 Concentration −4.0): −84%
Percent Growth (OVCAR-8; Log10 Concentration −5.0): −65%
Percent Growth (OVCAR-8; Log10 Concentration −6.0): 96%
Percent Growth (OVCAR-8; Log10 Concentration −7.0): 101%
Percent Growth (OVCAR-8; Log10 Concentration −8.0): 97%
TGI (786-0): 3.22E−6
GI50 (786-0; Homo sapiens): 1.78 µM
CC50 (786-0; [1]): 5.83 µM
Percent Growth (786-0; Log10 Concentration −4.0): −100%
Percent Growth (786-0; Log10 Concentration −5.0): −95%
Percent Growth (786-0; Log10 Concentration −6.0): 98%
Percent Growth (786-0; Log10 Concentration −7.0): 98%
Percent Growth (786-0; Log10 Concentration −8.0): 96%
TGI (CCRF-CEM): 2.58E−6
GI50 (CCRF-CEM; Homo sapiens): 0.3 µM
CC50 (CCRF-CEM; [1]): 87.4 µM
Percent Growth (CCRF-CEM; Log10 Concentration −4.0): −52%
Percent Growth (CCRF-CEM; Log10 Concentration −5.0): −21%
Percent Growth (CCRF-CEM; Log10 Concentration −6.0): 14%
Percent Growth (CCRF-CEM; Log10 Concentration −7.0): 82%
Percent Growth (CCRF-CEM; Log10 Concentration −8.0): 84%
TGI (SK-OV-3): 3.06E−6
GI50 (SK-OV-3; Homo sapiens): 1.67 µM
CC50 (SK-OV-3; [1]): 5.62 µM
Percent Growth (SK-OV-3; Log10 Concentration −4.0): −100%
Percent Growth (SK-OV-3; Log10 Concentration −5.0): −97%
Percent Growth (SK-OV-3; Log10 Concentration −6.0): 92%
Percent Growth (SK-OV-3; Log10 Concentration −7.0): 97%
Percent Growth (SK-OV-3; Log10 Concentration −8.0): 95%
TGI (A498): 2.79E−6
GI50 (A498; Homo sapiens): 1.33 µM
CC50 (A498; [1]): 5.87 µM
Percent Growth (A498; Log10 Concentration −4.0): −100%
Percent Growth (A498; Log10 Concentration −5.0): −86%
Percent Growth (A498; Log10 Concentration −6.0): 69%
Percent Growth (A498; Log10 Concentration −7.0): 62%
Percent Growth (A498; Log10 Concentration −8.0): 75%
TGI (M14): 2.88E−6
GI50 (M14; Homo sapiens): 1.52 µM
CC50 (M14; [1]): 5.43 µM
Percent Growth (M14; Log10 Concentration −4.0): −100%
Percent Growth (M14; Log10 Concentration −5.0): −98%
Percent Growth (M14; Log10 Concentration −6.0): 83%
Percent Growth (M14; Log10 Concentration −7.0): 97%
Percent Growth (M14; Log10 Concentration −8.0): 95%
TGI (HCC-2998): 2.73E−6
GI50 (HCC-2998; Homo sapiens): 1.42 µM
CC50 (HCC-2998; [1]): 5.23 µM
Percent Growth (HCC-2998; Log10 Concentration −4.0): −99%
Percent Growth (HCC-2998; Log10 Concentration −5.0): −100%
Percent Growth (HCC-2998; Log10 Concentration −6.0): 77%
Percent Growth (HCC-2998; Log10 Concentration −7.0): 91%
Percent Growth (HCC-2998; Log10 Concentration −8.0): 96%
